Measurements published in US11286268B1, “EIF4E-inhibiting compounds and methods” (EFFECTOR THERAPEUTICS, INC., priority 2019, dated 2022).
Like-named read-outs stand apart in the source and are kept apart here.

Target: recombinant eIF4E (Homo sapiens (Human), UniProt P06730)
Test: Fluorescence polarization competition assay for eIF4E binding potency
Procedure, shortened: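 IC50 values reflect 50% displacement of 20 nM EDA-m7GDP-ATTO-550 from 75 nM eIF4E, measured by fluorescence polarization after 30 min at room temperature. Buffer: 20 mM Tris pH 7.5, 100 mM NaCl, 1 mM DTT, 0.02% Tween-20; 1% DMSO.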

[1] = fluorescence polarization competition, 75 nM recombinant eIF4E, 20 nM EDA-m7GDP-ATTO-550, IC50 class, read-out: elF4E FP
[2] = inhibition of eIF4E/EDA-m7GDP-ATTO-550 binding by 50%, Table 4B calculated values, read-out: IC50
[3] = inhibition of eIF4E/EDA-m7GDP-ATTO-550 binding, calculated IC50 values, Table 4B, read-out: IC50

Chain of recombinant eIF4E (P06730 whole entry): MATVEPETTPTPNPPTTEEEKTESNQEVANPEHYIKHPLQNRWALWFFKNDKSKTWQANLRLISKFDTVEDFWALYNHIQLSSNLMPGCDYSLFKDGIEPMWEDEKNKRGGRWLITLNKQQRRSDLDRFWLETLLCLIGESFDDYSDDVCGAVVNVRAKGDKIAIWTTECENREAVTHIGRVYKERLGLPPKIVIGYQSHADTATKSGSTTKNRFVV

| Compound | IC50 [1] [nM] | IC50 [2] [nM] | IC50 [3] [nM] |
| --- | --- | --- | --- |
| Cc1nc2ccc(OCCN(C)C)c(C#N)c2c(=O)n1CCOc1ccc(Cl)cc1-c1ccnc2c(C(=O)O)csc12 [compound 457] | < 50 | 11.2 |  |
| Cc1cc(-c2cc(Cl)ccc2OCCn2c(C)nc3cnc(C4CC4(F)F)c(C#N)c3c2=O)c2scc(C(=O)O)c2n1 (centres unmarked) [compound 807] | < 50 |  |  |
| Cc1cc(-c2cc(Cl)ccc2OCCn2c(C)nc3cc(Cl)c(-c4cccnc4C)c(C#N)c3c2=O)c2scc(C(=O)O)c2n1 [compound 395] | < 50 | 9.68 |  |
| Cc1cc(-c2cc(Cl)ccc2OCCn2c(C)nc3cnc([C@H]4C[C@@H](O)C4)c(C#N)c3c2=O)c2scc(C(=O)O)c2n1 [compound 1194] | < 50 |  | 15.3 |
| N#Cc1cc2c(=O)n(CCOc3ccc(Cl)cc3-c3ncc(C(=O)O)s3)cnc2cn1 [compound 52] | > 1000 | > 3000 |  |
| Cc1nc2cnc(N(C)C3CCN(CC(F)(F)C(F)F)CC3)c(C#N)c2c(=O)n1CCOc1ccc(Cl)cc1-c1ccnc2c(C(=O)O)csc12 [compound 1515] |  |  | 32.1 |
| Cc1nc2cnc(N3CCN(C(C)C(F)(F)F)CC3)c(C#N)c2c(=O)n1CCOc1ccc(Cl)cc1-c1ccnc2c(C(=O)O)csc12 (centres unmarked) [compound 1315] |  |  | 13.1 |
| Cc1cc(-c2cc(Cl)ccc2OCCn2c(C)nc3cnc(N4CCN(C)CC4)c(C#N)c3c2=O)c2sc(C)c(C(=O)O)c2n1 [compound 1418] |  |  | 9.1 |
| CC(C)(C#N)c1cc(C(=O)O)cc(-c2cc(Cl)ccc2OCCn2cnc3cnc(C#N)cc3c2=O)c1 [compound 110] | > 1000 | 26900 |  |
| CCN(c1ncc2nc(C)n(CC#Cc3ccc(Cl)cc3-c3ccnc4c(C(=O)NS(=O)(=O)CC(F)(F)F)csc34)c(=O)c2c1C#N)C1CCN(C2COC2)CC1 [compound 1734] |  |  | 19.4 |
| Cc1cc(-c2cc(Cl)ccc2OCCn2c(C)nc3cc(Cl)c(-c4cncc(F)c4)c(C#N)c3c2=O)c2scc(C(=O)O)c2n1 [compound 394] | < 50 | 21.8 |  |
| Cc1cc(-c2cc(Cl)ccc2OCCn2c(C)nc3cnc(-c4cc(F)ccc4C)c(C#N)c3c2=O)c2scc(C(=O)O)c2n1 [compound 1052] | < 50 | 5.46 |  |
| Cc1cc(-c2cc(Cl)ccc2OCCn2c(C)nc3c(C)ncc(C#N)c3c2=O)c2scc(C(O)(C(F)(F)F)C(F)(F)F)c2n1 [compound 749] | > 1000 | > 100000 |  |
| Cc1nc2cnc(-c3ccncc3)c(C#N)c2c(=O)n1CC#Cc1ccc(Cl)cc1-c1ccnc2c(C(=O)O)csc12 [compound 770] | < 50 | 14 |  |
| Cc1nc2cnc(N(C)C3CCN(CC(F)(F)CF)CC3)c(C#N)c2c(=O)n1CC#Cc1ccc(Cl)cc1-c1ccnc2c(C(=O)O)csc12 [compound 1134] | < 50 | 15.3 |  |
| Cc1cc(C)c(-c2c(C(F)(F)F)cc3nc(C)n(CCOc4ccc(Cl)cc4-c4cc(C)nc5c(C(=O)O)csc45)c(=O)c3c2C#N)cn1 [compound 350] | < 50 | 14.2 |  |
| Cc1nc2cc(C(F)(F)F)cc(C#N)c2c(=O)n1CC#Cc1ccc(Cl)cc1-c1ccnc2c(C(=O)O)csc12 [compound 120] | < 50 | 35.7 |  |
| Cc1cc(-c2cc(Cl)ccc2OCCn2c(C)nc3c(C)nc(N4CCC(O)C4)c(C#N)c3c2=O)c2scc(C(=O)O)c2n1 (centres unmarked) [compound 1149] | < 50 | 4.19 |  |
| Cc1nc2cc(C(F)F)c(CN(C)C)c(C#N)c2c(=O)n1CC#Cc1ccc(Cl)cc1-c1ccnc2c(C(=O)O)csc12 [compound 622] | < 50 | 43.8 |  |
| N#Cc1cc(C(F)(F)F)cc2nc(O)n(CCOc3ccc(Cl)cc3-c3cccc(C(=O)O)c3)c(=O)c12 [compound 186] | 50 to 1000 | 344 |  |
| Cc1nc2cc(C(F)(F)F)cc(Br)c2c(=O)n1CCOc1ccc(Cl)cc1-c1ccnc2c(C(=O)O)csc12 [compound 305] | 50 to 1000 | 431 |  |
| Cc1cc(-c2cc(Cl)ccc2OCCn2c(C)nc3cc(C(F)(F)F)c(-c4ccc(C)c(C)n4)c(C#N)c3c2=O)c2scc(C(=O)O)c2n1 [compound 904] | < 50 | 4.19 |  |
| N#Cc1cc(Br)cc2ncn(CCOc3ccc(Cl)cc3-c3cccc(C(=O)O)c3)c(=O)c12 [compound 1988] |  |  | 49.5 |
| Cc1nc2cnc(N(C)CCCN(C)CC(F)(F)F)c(C#N)c2c(=O)n1CC#Cc1ccc(Cl)cc1-c1ccnc2c(C(=O)O)csc12 [compound 1497] |  |  | 12.9 |
| Cc1cc(-c2cc(Cl)ccc2OCCn2c(C)nc3cc4c(c(C#N)c3c2=O)CN(C)C4)c2scc(C(=O)O)c2n1 [compound 712] | < 50 | 19.6 |  |
| Cc1cc(-c2cc(Cl)ccc2OCCn2c(C)nc3cc(C(F)(F)F)c(C(=O)N(C)C)nc3c2=O)c2scc(C(=O)O)c2n1 [compound 781] | < 50 | 3.12 |  |

| Compound | IC50 [1] [nM] | IC50 [2] [nM] | IC50 [3] [nM] |
| --- | --- | --- | --- |
| Cc1cc(-c2cc(Cl)ccc2OCCn2c(C)nc3cc(-c4cccnc4)c(C)c(C#N)c3c2=O)c2scc(C(=O)O)c2n1 [compound 759] | 50 to 1000 | 52.9 |  |
| Cc1cc(-c2cc(Cl)ccc2OCCn2c(C)nc3ccc(OC(F)(F)F)c(C#N)c3c2=O)c2scc(C(=O)O)c2n1 [compound 583] | < 50 | 15.9 |  |
| Cc1cc(-c2cc(Cl)ccc2OCCn2c(C)nc3c(C)nc(-c4cc(F)ccc4C)c(C#N)c3c2=O)c2scc(C(=O)O)c2n1 [compound 927] | < 50 | 6.34 |  |
| Cc1cc(-c2cc(Cl)ccc2OCCn2c(C)nc3c(C)nc(-c4cc(F)ccc4Cl)c(C#N)c3c2=O)c2scc(C(=O)O)c2n1 [compound 999] | < 50 | 16.3 |  |
| Cc1nc2ccc(CCN(C)C)c(C#N)c2c(=O)n1CCOc1ccc(Cl)cc1-c1cc(OC(F)F)nc2c(C(=O)O)csc12 [compound 575] | < 50 | 25.7 |  |
| Cc1c(CCOc2ccc(Cl)cc2-c2ccnc3c(C(=O)O)csc23)c(=O)c2c(C#N)cc(C(F)(F)F)cc2n1CCF [compound 362] | 50 to 1000 | 72.2 |  |
| Cc1cc(-c2cc(Cl)ccc2OCCn2c(C)nc3cc(Cl)c(N4CCC(O)C4)c(C#N)c3c2=O)c2scc(C(=O)O)c2n1 (centres unmarked) [compound 1054] | < 50 | 18.6 |  |
| Cc1nc2cc(C(F)(F)F)cc(C#N)c2c(=O)n1CCOc1ccc(Cl)cc1-c1ccnc2c(C(=O)O)cnn12 [compound 661] | < 50 | 12.1 |  |
| Cc1nc2cc(C(F)(F)F)c(N3CCN(C4CC4)CC3)c(C#N)c2c(=O)n1CCOc1ccc(Cl)cc1-c1ccnc2c(C(=O)O)csc12 [compound 1291] |  |  | 41.2 |
| Cc1cc(-c2nc3c(=O)n(CCOc4ccc(Cl)cc4-c4cc(C)nc5c(C(=O)O)csc45)c(C)nc3cc2C(F)(F)F)ccn1 [compound 463] | < 50 | 8.86 |  |
| Cc1ccccc1S(=O)(=O)NC(=O)c1csc2c(-c3cc(Cl)ccc3C#CCn3c(C)nc4cnc(N(C)C5CCN(CC(F)(F)F)CC5)c(C#N)c4c3=O)ccnc12 [compound 1549] |  |  | 26.2 |
| Cc1nc2cc(OC(F)(F)F)c(CN(C)C)c(C#N)c2c(=O)n1CCOc1ccc(Cl)cc1-c1ccnc2c(C(=O)O)csc12 [compound 532] | < 50 | 45.1 |  |
| C#Cc1c(C(=O)O)cccc1-c1cc(Cl)ccc1OCCn1cnc2cc(C(F)(F)F)cc(C#N)c2c1=O [compound 159] | < 50 | 30.9 |  |
| Cc1nc2cnc(O)c(C#N)c2c(=O)n1CC#Cc1ccc(Cl)cc1-c1ccnc2c(C(=O)O)csc12 [compound 891] | < 50 | 13.7 |  |
| Cc1nc2cc(C(F)(F)F)c(CN(C)C)c(C#N)c2c(=O)n1CC#Cc1ccc(Cl)cc1-c1ccnc2c(C(=O)O)csc12 [compound 553] | < 50 | 13.4 |  |
| Cc1nc2cc(C(F)(F)F)cc(C#N)c2c(=O)n1CCOc1ccc(Cl)cc1-c1ccc(C(=O)O)c2ncsc12 [compound 226] | 50 to 1000 | 70.7 |  |
| Cc1nc2cnc(N3CC4(CCN4C4CC4)C3)c(C#N)c2c(=O)n1CC#Cc1ccc(Cl)cc1-c1ccnc2c(C(=O)O)csc12 [compound 1525] |  |  | 15.1 |
| Cc1nc2cnc(/C=C/CN3CCC(F)(F)CC3)c(C#N)c2c(=O)n1CCOc1ccc(Cl)cc1-c1ccnc2c(C(=O)O)csc12 [compound 1121] | < 50 | 9.26 |  |
| COC1CCN(c2ncc3nc(C)n(CCOc4ccc(Cl)cc4-c4cc(C)nc5c(C(=O)O)csc45)c(=O)c3c2C#N)C1 (centres unmarked) [compound 1234] | < 50 |  | 30.2 |
| Cc1nc2cnc(C3=CCN(CC(F)(F)F)CC3)c(C#N)c2c(=O)n1CCOc1ccc(Cl)cc1-c1ccnc2c(C(=O)O)csc12 [compound 889] | < 50 | 12.4 |  |
| Cc1nc2cnc(N3CCN(C)C4(CC4)C3)c(C#N)c2c(=O)n1CCOc1ccc(Cl)cc1-c1ccnc2c(C(=O)O)csc12 [compound 1337] |  |  | 51.9 |
| Cc1nc2cnc(N3CCN(C4CC4)C4(CC4)C3)c(C#N)c2c(=O)n1CCOc1ccc(Cl)cc1-c1ccnc2c(C(=O)O)csc12 [compound 1646] |  |  | 26.3 |
| Cc1nc2cnc(N3CCN(C4CC4)CC3(C)C)c(C#N)c2c(=O)n1CC#Cc1ccc(Cl)cc1-c1ccnc2c(C(=O)O)csc12 [compound 1102] | < 50 | 19.2 |  |
| Cc1cc(-c2cc(Cl)ccc2OCCn2c(C)nc3cnc(C4(C(F)(F)F)CC4)c(C#N)c3c2=O)c2scc(C(=O)O)c2n1 [compound 839] | < 50 | 29.6 |  |
| Cc1cc(-c2cc(Cl)ccc2OCCn2c(C)nc3cc(C(F)(F)F)c(-c4cc(F)ccn4)c(C#N)c3c2=O)c2scc(C(=O)O)c2n1 [compound 777] | 50 to 1000 | 53.3 |  |
| Cc1nc2cc(C(F)(F)F)c(N3CCN(CC(F)F)CC3)c(C#N)c2c(=O)n1CCOc1ccc(Cl)cc1-c1cccc(C(=O)O)c1 [compound 377] | 50 to 1000 | 61.2 |  |
